For 22 compounds, IC50 and Kp results are on record in patent publication US12655139B2, “Isoxazolidines as RIPK1 inhibitors and use thereof” (SANOFI, priority 2020, dated 2026).

Series [1] deals with T1, hRIPK1 (aa 1-375) fusion protein (Homo sapiens, UniProt Q13546).
T1 construct: hRIPK1 (aa 1-375) fusion protein
T1 sequence (Q13546 1-375): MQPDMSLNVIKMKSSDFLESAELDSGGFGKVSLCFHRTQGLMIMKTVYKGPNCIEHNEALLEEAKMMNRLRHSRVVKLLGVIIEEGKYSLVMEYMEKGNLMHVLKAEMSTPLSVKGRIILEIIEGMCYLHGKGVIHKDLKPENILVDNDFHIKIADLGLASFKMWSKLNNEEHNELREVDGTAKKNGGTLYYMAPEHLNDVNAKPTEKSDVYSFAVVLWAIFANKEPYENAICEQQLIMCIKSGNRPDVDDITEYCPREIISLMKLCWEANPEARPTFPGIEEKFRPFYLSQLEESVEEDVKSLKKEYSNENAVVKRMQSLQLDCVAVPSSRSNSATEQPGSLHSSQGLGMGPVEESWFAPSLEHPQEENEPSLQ
Nature of the series: ADP-Glo kinase assay, RIPK1 autophosphorylation. It counts as biochemical. Background: ADP-Glo turns the ADP formed in a reaction into a luminescent signal.

The next series has as its system U937 cells. Nature of the series: Cellular assay in U937 cells on cell death (necroptosis), TNFα/zVAD.fmk. It is filed as cell-based. As to conditions: Homo sapiens. The gist of the method:
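U937 cells with 100 ng/ml TNFα plus 50 μM zVAD.fmk (pre-addition suspension levels) received 10 compound concentrations (10 μM–0.26 nM or 1 μM–0.07 nM) for 18–24 h at 37 °C. Live cells were read by MTS formazan absorbance at 490 nm after 4 h. % inhibition is relative to the maximal value without TNFα/zVAD.fmk.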

The nature of series [2]: Pharmacokinetic studies in mice, oral application. The conditions noted are these: male, C57BL/6, brain / plasma; mouse, 2 h, oral 30 mg/kg; read-out: Mouse PK brain/blood ratio. It counts as in vivo. The method, then: Pharmacokinetic Studies in Mice
A suspension of the respective test articles (30 mg/kg, 10 ml/kg, 3 mg/ml) was prepared in 0.6% methyl cellulose (MC) by thorough mixing of the fine solid with the freshly made and filtered MC solution and administered to 24 non-fasted male C57BL/6 mice (20-25 g) by gavage. Terminal blood sampling (with the addition of K2-EDTA) was performed at 0.25, 0.5, 1, 2, 4, 6, 8 and 24 h post admin. Plasma was generated by centrifugation and deep-frozen (−20° C.). In addition, after 2 h, brain and liver were removed from the respective 3 mice. Additional plasma was collected from terminal blood. The organs were pooled, homogenized and the homogenate extracted with an acetonitrile-water mixture prior to measurement by HPLC-MS/MS. The brain/plasma ratio was determined at 2 h by dividing the brain concentration at 2 h through the respective value for the plasma concentration at 2 h.
Ex. 004: 21 mice were used in the study, without the 6 h sampling time. The same study design was applied.
A suspension of the respective test articles (30 mg/kg, 10 ml/kg, 3 mg/ml) was prepared in freshly prepared and filtered 0.6% methyl cellulose solution by wet-milling using Retsch MM 301 mixer mill (10 min, room temperature) and administered to 6 non-fasted male C57BL/6 mice (20-25 g) by gavage. Serial sampling of blood (with the addition of K3-EDTA) was performed at 0.25, 0.5, 1, 2, 4, 6, 8 and 24 h post admin. The blood samples were diluted (10 μl blood were added to a mixture of 90 μl 25% acetonitrile in water) and deep-frozen (−20° C.). After 2 h, 3 of the 6 animals were sacrificed and brain and liver taken off. Additional plasma was prepared from terminal blood. The organs were homogenized and the homogenate extracted with an acetonitrile-water mixture prior to measurement by HPLC-MS/MS. The brain/plasma ratio was determined at 2 h by dividing the brain concentration at 2 h through the respective value for the plasma concentration at 2 h.

[3] abbreviates: U-937, Comparator table 5, read-out: U937 IC50 (uM) Mean.
Where [4] appears, read: U-937, Table 2, read-out: U937 IC50.

Counter-ions that a name gives are not always drawn. Like-named read-outs stand apart in the source and are kept apart here.

A word on the IC50: it is the midpoint of a concentration-inhibition curve. As to `N#Cc1cc(N2CCC(C(=O)N3OCC[C@H]3c3cc(F)cc(F)c3)CC2)ncn1` [A, reference compound], the IC50 was found to be 12 nM in series [1] (Comparator table 5) and 0.003 µM with U937 cells (setting [3]). Moreover, in series [2], the Kp at 2 h was 0.82.

For `NC(=O)c1cc(N2CCC(C(=O)N3OCC[C@H]3c3cc(F)cc(F)c3)CC2)ncn1` [D, reference compound], the IC50 is 10 nM in series [1] (Comparator table 5) and 0.004 µM in the series on U937 cells (setting [3]). The Kp at 2 h in series [2] is 1.1.

In the case of `N#Cc1cc(N2CCC(C(=O)N3N=CC[C@H]3c3cc(F)cc(F)c3)CC2)ncn1` [G, reference compound], the IC50 in the series on U937 cells (setting [3]) is 0.002 µM. Moreover, the Kp at 2 h in series [2] worked out at 1.5.

Turning to `Cc1c(F)cncc1[C@@H]1CCON1C(=O)C1CCN(c2nccc(C#N)n2)CC1` [compound 140, (S)-2-(4-(3-(5-fluoro-4-methylpyridin-3-yl)isoxazolidine-2-carbonyl)piperidin-1-yl)pyrimidine-4-carbonitrile], the half-inhibitory concentration (IC50) was determined as 71.3 nM in series [1] (Table 1) and 0.55 µM with U937 cells (setting [4]).

For the compound `Cc1c(F)cncc1[C@@H]1CCON1C(=O)C1CCN(c2nccc(C(N)=O)n2)CC1` [compound 141, (S)-2-(4-(3-(5-fluoro-4-methylpyridin-3-yl)isoxazolidine-2-carbonyl)piperidin-1-yl)pyrimidine-4-carboxamide], the values for the half-maximal inhibitory concentration (IC50) (in series [1] (Table 1); with U937 cells (setting [4])) were 81.9 nM and 0.254 µM, respectively.

Regarding `Cc1c(F)cncc1[C@@H]1CCON1C(=O)C1CCN(c2cc(C(N)=O)ncn2)CC1` [compound 142, (S)-6-(4-(3-(5-fluoro-4-methylpyridin-3-yl)isoxazolidine-2-carbonyl)piperidin-1-yl)pyrimidine-4-carboxamide], the IC50 in series [1] (Table 1) turned out to be 407 nM; in the series with U937 cells (setting [4]), 3 µM.

For `Cc1c(F)cncc1[C@@H]1CCON1C(=O)C1CCN(c2cc(C#N)ncn2)CC1` [compound 143, (S)-6-(4-(3-(5-fluoro-4-methylpyridin-3-yl)isoxazolidine-2-carbonyl)piperidin-1-yl)pyrimidine-4-carbonitrile], the figures for the 50% inhibitory concentration (IC50) (in series [1] (Table 1); in the series with U937 cells (setting [4])) were 323 nM and 1.76 µM, respectively.

On to `COc1nccc(N2CCC(C(=O)N3OCC[C@H]3c3cncc(C#N)c3)CC2)n1` [compound 144, 5-[(3S)-2-[1-(2-methoxypyrimidin-4-yl)piperidine-4-carbonyl]isoxazolidin-3-yl]pyridine-3-carbonitrile], for which the IC50 was 75.2 nM in series [1] (Table 1) and 0.536 µM in the series on U937 cells (setting [4]).

As to `N#Cc1cncc([C@@H]2CCON2C(=O)C2CCN(c3ccnc(C#N)n3)CC2)c1` [compound 145, 4-[4-[(3S)-3-(5-cyano-3-pyridyl)isoxazolidine-2-carbonyl]-1-piperidyl]pyrimidine-2-carbonitrile], the values for the IC50 (in series [1] (Table 1); with U937 cells (setting [4])) were 46.6 nM and 0.149 µM, respectively.

Turning to `CSc1nccc(N2CCC(C(=O)N3OCC[C@H]3c3cncc(C#N)c3)CC2)n1` [compound 146, 5-[(3S)-2-[1-(2-methylsulfanylpyrimidin-4-yl)piperidine-4-carbonyl]isoxazolidin-3-yl]pyridine-3-carbonitrile], the half-inhibitory concentration (IC50) in series [1] (Table 1) amounted to 45.8 nM; in the series on U937 cells (setting [4]), 0.229 µM.

With `N#Cc1cncc([C@@H]2CCON2C(=O)C2CCN(c3ccnc(Cl)n3)CC2)c1` [compound 147, 5-[(3S)-2-[1-(2-chloropyrimidin-4-yl)piperidine-4-carbonyl]isoxazolidin-3-yl]pyridine-3-carbonitrile], the half-maximal inhibitory concentration (IC50) is 30.6 nM in series [1] (Table 1) and 0.0569 µM in the series with U937 cells (setting [4]).

For the compound `CCOC(=O)c1nccc(N2CCC(C(=O)N3OCC[C@H]3c3cncc(C#N)c3)CC2)n1` [compound 149, ethyl 4-[4-[(3S)-3-(5-cyano-3-pyridyl)isoxazolidine-2-carbonyl]-1-piperidyl]pyrimidine-2-carboxylate], the IC50 in series [1] (Table 1) turned out to be 370 nM; in the series on U937 cells (setting [4]), 6.17 µM.

Turning to `Cc1coc([C@@H]2CCON2C(=O)C2CCN(c3nccc(C#N)n3)CC2)c1` [compound 150, (S)-2-(4-(3-(4-methylfuran-2-yl)isoxazolidine-2-carbonyl)piperidin-1-yl)pyrimidine-4-carbonitrile], the concentration for half-maximal inhibition (IC50) in series [1] (Table 1) amounted to 69 nM; in the series with U937 cells (setting [4]), 0.0235 µM.

For the compound `Cc1coc([C@@H]2CCON2C(=O)C2CCN(c3nccc(C(N)=O)n3)CC2)c1` [compound 151, (S)-2-(4-(3-(4-methylfuran-2-yl)isoxazolidine-2-carbonyl)piperidin-1-yl)pyrimidine-4-carboxamide 2,2,2-trifluoroacetate salt], the values for the IC50 (in series [1] (Table 1); with U937 cells (setting [4])) were 100 nM and 0.025 µM, respectively.

For the compound `Cc1coc([C@@H]2CCON2C(=O)C2CCN(c3cc(C#N)ncn3)CC2)c1` [compound 152, (S)-6-(4-(3-(4-methylfuran-2-yl)isoxazolidine-2-carbonyl)piperidin-1-yl)pyrimidine-4-carbonitrile 2,2,2-trifluoroacetate salt], the half-maximal inhibitory concentration (IC50) in series [1] (Table 1) is 132 nM; in the series with U937 cells (setting [4]) it was 0.128 µM.

For `Cc1coc([C@@H]2CCON2C(=O)C2CCN(c3cc(C(N)=O)ncn3)CC2)c1` [compound 153, (S)-6-(4-(3-(4-methylfuran-2-yl)isoxazolidine-2-carbonyl)piperidin-1-yl)pyrimidine-4-carboxamide 2,2,2-trifluoroacetate salt], the IC50 in series [1] (Table 1) is 102 nM; in the series with U937 cells (setting [4]), 0.0998 µM.

Take `Cc1cc([C@@H]2CCON2C(=O)C2CCN(c3nccc(C#N)n3)CC2)co1` [compound 162, (S)-2-(4-(3-(5-methylfuran-3-yl)isoxazolidine-2-carbonyl)piperidin-1-yl)pyrimidine-4-carbonitrile]: the IC50 came to 20.1 nM in series [1] (Table 1) and 0.00541 µM with U937 cells (setting [4]).

In the case of `Cc1cc([C@@H]2CCON2C(=O)C2CCN(c3cc(C#N)ncn3)CC2)co1` [compound 163, (S)-6-(4-(3-(5-methylfuran-3-yl)isoxazolidine-2-carbonyl)piperidin-1-yl)pyrimidine-4-carbonitrile], the IC50 in series [1] (Table 1) came out at 20.8 nM; with U937 cells (setting [4]), 0.00604 µM.

With `N#Cc1cncc([C@@H]2CCON2C(=O)C2CCN(c3cc(F)ncn3)CC2)c1` [compound 169, (S)-5-(2-(1-(6-fluoropyrimidin-4-yl)piperidine-4-carbonyl)isoxazolidin-3-yl)nicotinonitrile], the IC50 worked out at 23.4 nM in series [1] (Table 1) and 0.119 µM in the series with U937 cells (setting [4]).

In the case of `N#Cc1cc([C@@H]2CCON2C(=O)C2CCN(c3nccc(C(N)=O)n3)CC2)cnn1` [compound 179, 2-[4-[(3S)-3-(6-cyanopyridazin-4-yl)isoxazolidine-2-carbonyl]-1-piperidyl]pyrimidine-4-carboxamide], the half-maximal inhibitory concentration (IC50) stood at 173 nM in series [1] (Table 1) and 2.03 µM in the series on U937 cells (setting [4]).

As for `Cc1ccc([C@@H]2CCON2C(=O)C2CCN(c3ncc(C)c(C(N)=O)n3)CC2)s1` [compound 182, 5-methyl-2-[4-[(3S)-3-(5-methyl-2-thienyl)isoxazolidine-2-carbonyl]-1-piperidyl]pyrimidine-4-carboxamide], the IC50 worked out at 15.6 nM in series [1] (Table 1) and 0.00701 µM in the series with U937 cells (setting [4]).

On to `Cc1ccc([C@@H]2CCON2C(=O)C2CCN(c3ncnc(C(N)=O)c3F)CC2)cn1` [compound 187, 5-fluoro-6-[4-[(3S)-3-(6-methyl-3-pyridyl)isoxazolidine-2-carbonyl]-1-piperidyl]pyrimidine-4-carboxamide; trifluoroacetic acid], for which the IC50 in series [1] (Table 1) came out at 65.9 nM; with U937 cells (setting [4]) it was 0.321 µM.
